Experimental data published in EP4786466A1, “QUINAZOLINE DERIVATIVE, SALT THEREOF, AND PHARMACEUTICAL COMPOSITION COMPRISING SAME AS ACTIVE INGREDIENT” (Korea Research Institute of Chemical Technology, priority 2023, dated 2025).
Read-outs that look alike come from different tables or passages of the source.

What was measured:
[1] = biological target: T1, Recombinant GST-TAG-MASTL (Homo sapiens, UniProt Q96GX5); experiment: HTRF-based kinase assay (HTRF KinEASE assay kit); assay type: biochemical; conditions: for activity at 1 µM: read-out: MASTL activity (%) HTRF (1 µM); for activity at 10 µM: footnote b: concentration 10 µM
T1 construct: GST; purchased Thermo Fisher Scientific
T1 sequence (Q96GX5 1-879): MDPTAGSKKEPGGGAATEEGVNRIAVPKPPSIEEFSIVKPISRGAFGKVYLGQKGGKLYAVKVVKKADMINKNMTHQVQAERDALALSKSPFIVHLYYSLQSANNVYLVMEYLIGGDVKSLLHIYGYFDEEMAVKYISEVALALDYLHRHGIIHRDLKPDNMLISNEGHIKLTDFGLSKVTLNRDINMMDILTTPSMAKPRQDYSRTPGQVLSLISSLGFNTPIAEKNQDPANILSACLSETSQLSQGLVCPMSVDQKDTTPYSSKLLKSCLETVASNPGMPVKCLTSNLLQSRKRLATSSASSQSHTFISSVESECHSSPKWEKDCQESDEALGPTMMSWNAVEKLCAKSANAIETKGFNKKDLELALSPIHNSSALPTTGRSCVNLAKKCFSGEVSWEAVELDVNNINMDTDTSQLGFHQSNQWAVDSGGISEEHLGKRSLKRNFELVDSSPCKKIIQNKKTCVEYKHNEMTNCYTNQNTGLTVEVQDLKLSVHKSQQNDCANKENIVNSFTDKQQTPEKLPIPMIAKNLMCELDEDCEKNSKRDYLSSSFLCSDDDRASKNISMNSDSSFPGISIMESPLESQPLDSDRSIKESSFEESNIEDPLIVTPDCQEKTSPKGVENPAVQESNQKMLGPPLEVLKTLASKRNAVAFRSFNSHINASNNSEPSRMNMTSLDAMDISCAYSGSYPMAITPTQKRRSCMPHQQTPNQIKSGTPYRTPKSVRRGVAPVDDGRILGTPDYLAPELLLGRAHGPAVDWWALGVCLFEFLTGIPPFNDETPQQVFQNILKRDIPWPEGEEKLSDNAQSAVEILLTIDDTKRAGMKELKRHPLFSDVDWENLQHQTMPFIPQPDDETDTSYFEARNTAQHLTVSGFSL
Excerpt: Recombinant GST-TAG-MASTL (Thermo Fisher Scientific, MA, USA) was used for HTRF-based kinase assays. The HTRF KinEASE assay kit (CisBio, MA, USA) was used according to the manufacturer's instructions.

pENSA = pENSA level by immunofluorescence (described method: in vitro kinase analysis with GST-tag-MASTL and His-tag-ENSA); assay type: cell-based; conditions: for pENSA (%) Immunofluor ecense (1 µM): compound 1 µM; for IC50: read-out: IC50(nM) pENSA
How it was run: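 In vitro kinase reaction using recombinant GST-tagged MASTL with His-tagged ENSA as substrate; phosphorylated ENSA (pENSA) serves as read-out of MASTL activity. Cell lines named: MCF7 breast cancer and MCF10A.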

in vitro = conditions: human
Procedure: (§1) MCF7 breast cancer cell lines and MCF10A normal breast cancer cell lines were treated with serial dilutions of the compounds of the present invention ranging from 1 µM to 15.63 nM for 72 hours. Cell viability was measured by the WST-8 assay (Cyto XTM cell viability assay kit; LPS solution, Daejeon, Korea) according to the manufacturer's instructions.

[2] = system: MCF7 breast cancer cell lines; experiment: Cell viability analysis, WST-8 assay, MCF7; conditions: Homo sapiens, MCF7, 72 h; for viability at 1 µM: read-out: Cell viability (%) WST-8, MCF7 (1 µM), compound 1 µM, 72 hours; for viability at 1.25 µM: read-out: Cell viability (%) WST-8, MCF7, footnote a: concentration 1.25 µM, 72 hours
Procedure: as §1

[3] = system: MCF10A normal breast cell lines; experiment: Cell viability analysis, WST-8 assay, MCF10A; conditions: Homo sapiens, MCF-10A, 72 h
Procedure: as §1

[4] = read-out: IC50 Cell viability (MCF7)
[5] = read-out: IC50 Cell viability (MCF10A)
[6] = HTRF, read-out: IC50(nM) MASTL activity
[7] = read-out: MASTL activity (%) HTRF
[8] = read-out: IC50(nM) Cell viability (MCF7)
[9] = read-out: IC50(nM) Cell viability (MCF10A)

NCCNC(=O)c1ccc(Nc2nc(Nc3cc(C4CC4)[nH]n3)c3ccccc3n2)cc1 [4aa, M-(2-aminoethyl)-4-((4-((5-cyclopropyl-1G-pyrazol-3-yl)amino)quinazolin-2-yl)amino)benzamide.trifluoroacetic acid]
IC50 [1]: 720 nM | activity at 1 µM [1]: 26.8% | pENSA (%) Immunofluor ecense (1 µM) (pENSA): 142.5% | viability at 1 µM (in vitro; mcf10a cells): 111% | viability at 1 µM [2]: 87.6% | IC50 [2, 4]: 4500 nM | IC50 [3, 5]: 9000 nM

NCCCNC(=O)c1ccc(Nc2nc(Nc3cc(C4CC4)[nH]n3)c3ccccc3n2)cc1 [4ab, M-(3-aminopropyl)-4-((4-((5-cyclopropyl-1G-pyrazol-3-yl)amino)quinazolin-2-yl)amino)benzamide.trifluoroacetic acid]
IC50 [1]: 1100 nM | activity at 1 µM [1]: 36.2% | pENSA (%) Immunofluor ecense (1 µM) (pENSA): 188% | viability at 1 µM (in vitro; mcf10a cells): 101% | viability at 1 µM [2]: 101% | IC50 [2, 4]: 12400 nM | IC50 [3, 5]: 5800 nM

CNCc1ccc(-c2nc(Nc3cc(C4CC4)[nH]n3)c3ccccc3n2)cc1 [9d, N-(5-cyclopropyl-1H-pyrazol-3-yl)-2-(4-((methylamino)methyl)phenyl)quinazolin-4-amine hydrogen chloride]
IC50 [1, 6]: 119 nM | activity at 10 µM [1, 7]: 20.4% | IC50 (pENSA): 577 nM | viability at 1.25 µM (in vitro): 11.1% | viability at 1.25 µM [2]: 36.2% | IC50 [2, 8]: 539 nM | IC50 [3, 9]: 413 nM

c1ccc2c(Nc3cc(C4CC4)[nH]n3)nc(N3CC4CCC(C3)N4)nc2c1 [20' (B), 2-(3,8-diazabicyclo[3.2.1]octan-3-yl)-M-(5-cyclopropyl-1G-pyrazol-3-yl)quinazolin-4-amine trifluoroacetic acid]
IC50 [1]: 106 nM | activity at 1 µM [1]: 6.6% | pENSA (%) Immunofluor ecense (1 µM) (pENSA): 21% | IC50 (pENSA): 755 nM | viability at 1 µM (in vitro; mcf10a cells): 34.9% | viability at 1 µM [2]: 32% | IC50 [2, 8]: 365 nM | IC50 [3, 9]: 596 nM

c1ccc(Nc2nc(Nc3cc(C4CC4)[nH]n3)c3ccccc3n2)cc1 [compound 4a, M^4-(5-cyclopropyl-1G-pyrazol-3-yl)-M^2-phenylquinazoline-2,4-diamine]
IC50 [1, 6]: 987 nM | activity at 1.25 µM ([1]; footnote a: concentration 1.25 µM, read-out: MASTL activity (%) HTRF): 54.9% | pENSA (%) Immunofluor ecense (1 µM) (pENSA): 3.7% | IC50 (pENSA): 501 nM | viability at 1.25 µM (in vitro; mcf10a cells): 34% | viability at 1.25 µM [2]: 8.1% | IC50 [2, 8]: 649 nM | IC50 [3, 9]: 881 nM

Nc1nc(Nc2cc(C3CC3)[nH]n2)c2ccccc2n1 [compound 4ca, N^4-(5-cyclopropyl-1H-pyrazol-3-yl)quinazoline-2,4-diamine]
IC50 ([1]; HTRF, unit µM, read-out: IC50 MASTL activity): 1800 nM | activity at 10 µM [1, 7]: 37.4% | viability at 1.25 µM (in vitro): 99.1% | viability at 1.25 µM [2]: 43% | IC50 [2, 4]: 1700 nM | IC50 [3, 5]: 2800 nM

c1ccc(CNc2nc(Nc3cc(C4CC4)[nH]n3)c3ccccc3n2)cc1 [compound 4cc, N^2-benzyl-N^4-(5-cyclopropyl-1H-pyrazol-3-yl)quinazoline-2,4-diamine]
IC50 [1, 6]: 298 nM | activity at 10 µM [1, 7]: 22% | IC50 (pENSA): 363 nM | viability at 1.25 µM (in vitro): 98.5% | viability at 1.25 µM [2]: 65.5% | IC50 [2, 4]: 1100 nM | IC50 [3, 5]: 2800 nM

CN(C)S(=O)(=O)c1ccc(Nc2nc(Nc3ccc(CC#N)cc3)nc3ccccc23)cc1 [compound 25a, 4-((2-((4-(cyanomethyl)phenyl)amino)quinazolin-4-yl)amino)-M,M-dimethylbenzenesulfonamide]
activity at 1 µM ([1]; compound 1 µM): 114% | pENSA (%) Immunofluor ecense (1 µM) (pENSA): 91.2% | viability at 1 µM (in vitro; mcf10a cells): 71.6% | viability at 1 µM [2]: 105%

CN(C)S(=O)(=O)c1ccc(Nc2nc(Nc3ccc(C#N)cc3)nc3ccccc23)cc1 [compound 25b, 4-((2-((4-cyanophenyl)amino)quinazolin-4-yl)amino)-M,M-dimethylbenzenesulfonamide]
activity at 1 µM ([1]; compound 1 µM): 91.6% | pENSA (%) Immunofluor ecense (1 µM) (pENSA): 102% | viability at 1 µM (in vitro; mcf10a cells): 58.1% | viability at 1 µM [2]: 86.4%

CN(C)S(=O)(=O)c1ccc(Nc2nc(Nc3ccc(C(F)(F)F)cc3)nc3ccccc23)cc1 [compound 25c, M,M-dimethyl-4-((2-((4-(trifluoromethyl)phenyl)amino)quinazolin-4-yl)amino)benzenesulfonamide]
activity at 1 µM [1]: 108% | pENSA (%) Immunofluor ecense (1 µM) (pENSA): 96.5% | viability at 1 µM (in vitro; mcf10a cells): 90% | viability at 1 µM [2]: 86.4%

CN(C)S(=O)(=O)c1ccc(Nc2nc(Nc3ccccc3)nc3ccccc23)cc1 [compound 25d, M,M-dimethyl-4-((2-(phenylamino)quinazolin-4-yl)amino)benzenesulfonamide]
activity at 1 µM [1]: 107% | pENSA (%) Immunofluor ecense (1 µM) (pENSA): 80.6% | viability at 1 µM (in vitro; mcf10a cells): 106% | viability at 1 µM [2]: 90.8%

Cc1cc(Nc2nc(N3CC4CC3CN4C(=O)C(C)C)nc3ccccc23)n[nH]1 (centres unmarked) [compound 27c, 2-methyl-1-(5-(4-((5-methyl-1G-pyrazol-3-yl)amino)quinazolin-2-yl)-2,5-diazabicyclo[2.2.1]heptan-2-yl)propan-1-one]
activity at 1 µM ([1]; compound 1 µM): 102% | pENSA (%) Immunofluor ecense (1 µM) (pENSA): 90.5% | viability at 1 µM (in vitro; mcf10a cells): 46.7% | viability at 1 µM [2]: 103%

Cc1cc(Nc2nc(N3CC4CC3CN4C(=O)c3ccccc3)nc3ccccc23)n[nH]1 (centres unmarked) [compound 27d, (5-(4-((5-methyl-1G-pyrazol-3-yl)amino)quinazolin-2-yl)-2,5-diazabicyclo[2.2.1]heptan-2-yl)(phenyl)methanone]
activity at 1 µM ([1]; compound 1 µM): 121% | pENSA (%) Immunofluor ecense (1 µM) (pENSA): 60.6% | viability at 1 µM (in vitro; mcf10a cells): 48.3% | viability at 1 µM [2]: 94.9%

Cc1cc(Nc2nc(N3CC4CC3CN4CC(C)C)nc3ccccc23)n[nH]1 (centres unmarked) [compound 27e, 2-(5-isobutyl-2,5-diazabicyclo[2.2.1]heptan-2-yl)-M-(5-methyl-1G-pyrazol-3-yl)quinazolin-4-amine]
activity at 1 µM ([1]; compound 1 µM): 67.4% | pENSA (%) Immunofluor ecense (1 µM) (pENSA): 90.1% | viability at 1 µM (in vitro; mcf10a cells): 74.8% | viability at 1 µM [2]: 88.3%

Cc1cc(Nc2nc(N3CC4CC3CN4Cc3ccccc3)nc3ccccc23)n[nH]1 (centres unmarked) [compound 27f, 2-(5-benzyl-2,5-diazabicyclo[2.2.1]heptan-2-yl)-M-(5-methyl-1G-pyrazol-3-yl)quinazolin-4-amine]
activity at 1 µM ([1]; compound 1 µM): 78.4% | pENSA (%) Immunofluor ecense (1 µM) (pENSA): 77.4% | viability at 1 µM (in vitro; mcf10a cells): 113% | viability at 1 µM [2]: 109%

CC(C)C(=O)N1CC2CC1CN2c1nc(Nc2cn[nH]c2)c2ccccc2n1 (centres unmarked) [compound 28c, 1-(5-(4-((1G-pyrazol-4-yl)amino)quinazolin-2-yl)-2,5-diazabicyclo[2.2.1]heptan-2-yl)-2-methylpropan-1-one]
activity at 1 µM ([1]; compound 1 µM): 117% | pENSA (%) Immunofluor ecense (1 µM) (pENSA): 80.0% | viability at 1 µM (in vitro; mcf10a cells): 85.3% | viability at 1 µM [2]: 105%

O=C(c1ccccc1)N1CC2CC1CN2c1nc(Nc2cn[nH]c2)c2ccccc2n1 (centres unmarked) [compound 28d, (5-(4-((1G-pyrazol-4-yl)amino)quinazolin-2-yl)-2,5-diazabicyclo[2.2.1]heptan-2-yl)(phenyl)methanone]
activity at 1 µM ([1]; compound 1 µM): 119% | pENSA (%) Immunofluor ecense (1 µM) (pENSA): 66.9% | viability at 1 µM (in vitro; mcf10a cells): 49.7% | viability at 1 µM [2]: 93.1%

CC(C)CN1CC2CC1CN2c1nc(Nc2cn[nH]c2)c2ccccc2n1 (centres unmarked) [compound 28e, 2-(5-isobutyl-2,5-diazabicyclo[2.2.1]heptan-2-yl)-M-(1G-pyrazol-4-yl)quinazolin-4-amine]
activity at 1 µM ([1]; compound 1 µM): 103% | pENSA (%) Immunofluor ecense (1 µM) (pENSA): 95.8% | viability at 1 µM (in vitro; mcf10a cells): 105% | viability at 1 µM [2]: 97.3%

c1ccc(CN2CC3CC2CN3c2nc(Nc3cn[nH]c3)c3ccccc3n2)cc1 (centres unmarked) [compound 28f, 2-(5-benzyl-2,5-diazabicyclo[2.2.1]heptan-2-yl)-M-(1G-pyrazol-4-yl)quinazolin-4-amine]
activity at 1 µM ([1]; compound 1 µM): 118% | pENSA (%) Immunofluor ecense (1 µM) (pENSA): 85.1% | viability at 1 µM (in vitro; mcf10a cells): 101% | viability at 1 µM [2]: 110%
